Experimental data: patent publication US20240269170A1, “Treatment of Inflammatory Conditions or Diseases” (Queen Mary University of London, priority 2021, published 2024)

What was measured:
[1] = test system: G6PI peptide induced arthritis in DBA/1 mice; test: G6PI peptide induced arthritis, MCTR3 treatment; format: in vivo, mouse
Protocol: (§1) (A-D) K/B×N serum (100 μL via intraperitoneal injection, i.p.) was administered to C57BL/6 mice on days 0, 2 and 8 to initiate and prolong inflammatory arthritis. Mice were treated 1 μg/mouse MCTR3 or vehicle (PBS+0.1% EtOH) on day 10, 12 and 14 via intravenous (i.v.) injection. Disease course was assessed by evaluating A) clinical scores and B) paw oedema daily. Results are mean±SEM, n=9 mice per group. Statistical differences were evaluated using a Two-Way ANOVA. Arrows denote days when MCTR3 was administered. (C,D) paws were harvested on day 25, and cells liberated from the joints and the expression of phenotypic markers was evaluated on joint macrophages using flow cytometry and PLS-DA. (C) scores plot with highlighted regions denoting the clusters representing cells from each group and (D) VIP scores for each of the markers evaluated. Each dot in the score plot represents a separate mouse. (E-H) Arthritis was induced in DBA/1 mice by administration of 10 μg G6PI in CFA on Day 0. On day 24, 26 and 28 (denoted in blue arrows), mice were administered 1 μg/mouse MCTR3 or vehicle (PBS+0.1% EtOH) i.v. and (E) clinical scores and (F) paw oedema were measured. Results are mean±SEM, n=mice 7 per group from 2 separate experiments. Statistical differences were evaluated using a Two-Way ANOVA. (G-H) paws were harvested on day 36, and cells liberated from the joints and the expression of phenotypic markers was evaluated on joint macrophages using flow cytometry and PLS-DA. (G) scores plot with highlighted regions denoting the clusters representing cells from each group and (H) VIP scores for each of the markers evaluated. Each dot in the score plot represents a separate mouse.
FIG. 10: MCTR3 promotes bone and cartilage repair in arthritic mice. G6PI peptide (10 μg/mouse) in CFA was administered to DBA/1 mice ([…]) and mice were treated with either vehicle (PBS+0.1% EtOH) or 1 μg/mouse MCTR3 i.v. on day 24, 26 and 28. On day 36, hind paws were harvested for histological analysis. A) Representative images from knee joints from a vehicle and MCTR3 treated mouse stained with Safranin-O and B) quantitative analysis of Safranin O staining. Results are mean±SEM n=5 mice per group. C-D) microCT analysis was performed in vivo on day 24 and 35, to evaluate bone erosion in the arthritic knees. […] Results are mean±SEM and expressed as percent change from values obtained on day 24 for each mouse. n=4 mice per group. Statistical differences were evaluated using a Mann-Whitney U test.
We next assessed whether the protective activities of MCTR3 were retained in a model of adaptive immune system driven arthritis, using the glucose-6-phosphate isomerase peptide driven model of inflammatory arthritis (Schubert et al., 2004, J Immunol 172, 4503-4509). Here, administration of MCTR3 during the course of arthritic inflammation also led to a reduction in joint inflammation as measured by a reduction in both clinical scores and joint oedema (FIG. 1E,F). […] This shift in phenotype was linked with an upregulation of three phenotypic markers, including Arg-1 and CD11b, in cells obtained from joints of MCTR3 treated mice (FIG. 1H).
Since one of the main debilitating features of arthritis is bone erosion, we next determined whether the joint protective actions of MCTR3 also extended to the bone. For this purpose, we used microCT analysis to investigate bone volume in arthritic joints, comparing bone volumes on day 24, prior to MCTR3 treatment, to those at day 35. […] We next queried whether these bone protective activities of
G6PI peptide induced arthritis: Antigen DBA/1 mice were immunised with a G6PI emulsion (120 μL/mouse), prepared by sonication of 10 μg G6PI peptide (Sequence: IWYINCFGCETHAML; Cambridge Peptides Ltd.) in 50 μL complete Freund's adjuvant (CFA) and 50 μL DPBS^−/− per mouse (Schubert et al., 2004, J Immunol 172, 4503-4509), via intradermal injection at the base of the tail to initiate inflammatory arthritis. […]

[2] = test system: K/B×N serum induced arthritis in C57BL/6 mice; test: Sustained K/B×N serum induced arthritis, MCTR3 given 10 days after disease onset; format: in vivo, mouse
Protocol: as §1
FIG. 2: MCTR3 promotes bone and cartilage repair. C57BL/6 mice were administered 100 μL K/B×N serum i.p. on day 0, 2 and 8. Mice were treated with 1 μg/mouse MCTR3 or vehicle (PBS+0.1% EtOH) i.v. on day 10, 12 and 14. Hind paws and blood were collected on day 25 and A) glycosaminoglycan content was evaluated using Safranin-O staining. (left and centre panels) Representative images from Safranin-O stained knee joints and (right panel) quantification of Safranin-O stained knee joints. Results are mean±SEM, n=8 per group. Statistical differences were evaluated using Mann-Whitney U test. B-D) Expression of collagen type 2 (Col 2) and collagen type X (Col X) was evaluated using immunohistochemistry. B) Representative images from immunofluorescent assessment of Col 2 and Col X expression, C) mean intensity of Col 2 and D) average number of cells expressing Col X. Results are mean±SEM, n=5 per group, statistical differences were evaluated using Mann-Whitney U test. E-I) microCT analysis was performed on ankle joints ex vivo to assess bone callus cover. D) Representative images of ankles from vehicle and MCTR3 treated mice, where red represents the callus area. F) Callus tissue volume, G) bone volume, H) bone surface and I) the ratio of bone surface to bone volume of the ankles from mice treated with either vehicle or MCTR3. Results are mean±SEM, n=8 per group from two separate experiments. Statistical differences were evaluated Mann-Whitney U test. J,K) Blood was collected at the end of the experiment and plasma PINP and CTX-I levels were assessed. Results are mean±SEM, n=5 for Vehicle and n=7 for MCTR3 groups. Statistical differences were evaluated Mann Whitney U test.
FIG. 8: MCTR3 decreased leukocyte infiltration and cartilage damage in arthritic mice. Related to FIG. 1. C57BL/6 mice were administered 100 μL K/B×N serum i.p. on day 0, 2 and 8. Mice were treated with 1 μg/mouse MCTR3 or vehicle i.v. (PBS+0.1% EtOH) on day 10, 12 and 14. Hind paws were collected on day 25, fixed and stained using H&E stain. (A) representative images (B) Pannus size (C) leukocyte infiltration and (D) cartilage damage were evaluated. Results are mean±SEM. n=5 mice per group. IFP=intrapatellar fat, M=meniscus, TB=Tibia, PF=Pannus formation, Red arrows denote leukocyte infiltration. […]

[3] = 1 μg/mouse i.v. on day 24, 26 and 28
[4] = 1 μg/mouse i.v., day 36, flow cytometry
[5] = 1 μg/mouse i.v. on day 10, 12 and 14
[6] = 1 μg/mouse i.v. on day 10, 12 and 14, hind paws day 25
[7] = 1 μg/mouse i.v., ELISA, end of experiment
[8] = 1 μg/mouse i.v., ankle joints day 25, microCT
[9] = 1 μg/mouse i.v., day 25, flow cytometry, VIP score
[10] = 1 μg/mouse i.v., day 25, immunohistochemistry

## CC/C=C\C/C=C\C[C@H](O)[C@@H](/C=C/C=C/C=C\C/C=C\CCC(=O)O)SC[C@H](N)C(=O)O [MCTR3, 13R-cysteinyl, 14S-hydroxy-4Z, 7Z, 9E, 11E, 13R, 14S, 16Z, 19Z-docosahexaenoic acid]
[1]; [3]
  clinical scores: reduction
  joint oedema: reduction
[1]; 1 μg/mouse i.v. on day 24, 26 and 28, day 36
  safranin O-staining in joints (glycosaminoglycan content): significantly higher
[1]; 1 μg/mouse i.v., day 35 compared with day 24
  bone volume in arthritic knees (microCT): increased
[1]; [4]
  Arg-1 in joint macrophages: upregulation
  CD11b in joint macrophages: upregulation
[2]; [5]
  clinical scores: significant reduction
  joint oedema: marked reduction
[2]; 1 μg/mouse i.v. on day 10, 12 and 14, day 25
  safranin O-staining in joints (glycosaminoglycan content): significantly higher
[2]; [6]
  cartilage damage (H&E): significantly reducing
  leukocyte infiltration (H&E): significantly reducing
[2]; 1 μg/mouse i.v. on day 10, 12 and 14, vehicle ~9 days
  resolution interval: ~5 days
[2]; [7]
  plasma CTX concentrations (bone resorption marker): significant reduction
  plasma PINP levels (bone formation marker): similar
[2]; [8]
  bone callus size (total volume and surface area occupied by the callus): smaller
  surface to volume ratio in the callus: significant increase
[2]; [9]
  Arginase (Arg)-1 in joint macrophages: upregulation
  Interleukin (IL)-10 in joint macrophages: upregulation
[2]; [10]
  expression of collagen 2 in joints: increase
  expression of collagen X in joints: increase
